Measurements reported in paper PMC6367362, “MD001, a Novel Peroxisome Proliferator-activated Receptor α/γ Agonist, Improves Glucose and Lipid Metabolism” (Scientific Reports, 2019).

Tests used:
human HA-PPARγ = target: T1, human HA-PPARγ (Homo sapiens, UniProt P37231); assay: PPRE luciferase activity assay in HEK293 cells transfected with HA-PPARγ; type: cell-based; parameters: transcriptional activity of PPARγ: dose or concentration left out as unconfirmed; conditions: HEK293, PPRE-pk-Luc; 24 h (Supplementary Fig. S2)
T1 construct: expressed in transfected cells; host or cells: HEK293
T1 sequence (P37231 1-505): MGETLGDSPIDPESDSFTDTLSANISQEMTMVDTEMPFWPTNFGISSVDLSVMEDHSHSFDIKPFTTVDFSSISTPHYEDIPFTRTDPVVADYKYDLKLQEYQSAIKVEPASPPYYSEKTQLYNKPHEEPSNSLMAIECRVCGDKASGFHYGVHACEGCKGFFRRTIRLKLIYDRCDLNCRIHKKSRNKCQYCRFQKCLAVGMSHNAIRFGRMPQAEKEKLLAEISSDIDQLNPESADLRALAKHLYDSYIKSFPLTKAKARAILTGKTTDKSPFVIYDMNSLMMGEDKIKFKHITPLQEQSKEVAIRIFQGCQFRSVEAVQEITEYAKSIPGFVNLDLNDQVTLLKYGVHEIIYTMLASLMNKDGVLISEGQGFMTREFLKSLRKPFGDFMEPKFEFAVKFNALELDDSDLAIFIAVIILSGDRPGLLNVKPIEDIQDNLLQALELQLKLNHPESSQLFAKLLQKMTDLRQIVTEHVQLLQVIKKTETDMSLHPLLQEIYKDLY
Experimental: (§1) Figure 2 MD001 induces the expression of target genes through PPARα and PPARγ activation. HEK293 cells were transiently co-transfected with human HA-PPARα (A) and HA-PPARγ (B) expression vectors along with the reporter plasmid (PPRE-pk-Luc) or control reporter plasmid (pk-Luc) with Renilla vector for 24 h. Cells were treated with MD001 (10 μM), rosiglitazone (rosi) (10 μM) or WY14643 (WY) (10 μM) for 24 h. Luciferase activity was normalised to Renilla luciferase activity as described in the Methods section. **, vs. vehicle. (C) HepG2 cells were treated with MD001 (10 μM) for 24 h, and total RNA was isolated and synthesised into cDNA. Relative expression was quantitated using qRT-PCR. **, vs. vehicle. (D,E) HepG2 cells were transfected with control siRNA, PPARα siRNA (D), or PPARγ siRNA (E) for 48 h and treated with vehicle, WY14643 (10 μM), rosiglitazone (10 μM) or MD001 (10 μM) for 24 h. Subsequently, cells were harvested for total RNA isolation. Relative expression of target genes was quantitated using qRT-PCR. ^#, vs. control siRNA; ^‡, vs. control siRNA/vehicle; ^§, vs. control siRNA/WY; * and **, vs. control siRNA/MD001. Data represent the mean ± SD of three independent experiments. *P < 0.05, **P < 0.01, ^#P < 0.01, ^‡P < 0.01, and ^§P < 0.01.
(§2) For transient transfection, cells were transfected with plasmid DNA constructs by polyethylenimine (PEI, Polysciences, Inc., Warrington, PA, USA) according to the manufacturer’s instructions. Transcription activity assays of PPARα and PPARγ in HEK293 cells were performed by co-transfection of HA-PPARα, HA-PPARγ, and peroxisome proliferator-response element (PPRE) reporter plasmid (PPRE-pk-Luc) or control reporter plasmid (pk-Luc) with Renilla vector for 24 h. […] Luciferase activity was measured with the Dual-Luciferase Reporter Assay System (Promega, Madison, WI, USA) and quantified using GloMax (Promega, USA) according to the manufacturer’s protocol. […]
(§3) Luciferase activity was measured as described in the Methods section. […]

human HA-PPARα = target: T2, human HA-PPARα (Homo sapiens, UniProt Q07869); assay: PPRE luciferase activity assay in HEK293 cells transfected with HA-PPARα; type: cell-based; parameters: transcriptional activity of PPARα: dose or concentration left out as unconfirmed; conditions: HEK293, PPRE-pk-Luc; 24 h (Supplementary Fig. S2)
T2 construct: expressed in transfected cells; host or cells: HEK293
T2 sequence (Q07869 1-468): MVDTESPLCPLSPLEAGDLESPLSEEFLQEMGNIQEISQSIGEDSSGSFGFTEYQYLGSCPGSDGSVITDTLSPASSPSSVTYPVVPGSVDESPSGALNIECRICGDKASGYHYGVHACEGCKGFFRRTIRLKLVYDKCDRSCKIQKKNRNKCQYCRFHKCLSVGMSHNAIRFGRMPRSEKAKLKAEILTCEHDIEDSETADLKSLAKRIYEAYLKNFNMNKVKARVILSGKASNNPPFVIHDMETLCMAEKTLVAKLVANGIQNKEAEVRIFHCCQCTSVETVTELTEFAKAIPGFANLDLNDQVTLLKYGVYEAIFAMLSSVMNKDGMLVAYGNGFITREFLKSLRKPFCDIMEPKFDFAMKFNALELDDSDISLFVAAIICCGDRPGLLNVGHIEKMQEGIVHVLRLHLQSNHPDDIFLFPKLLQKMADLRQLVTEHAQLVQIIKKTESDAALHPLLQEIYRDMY
Experimental: as §1, §2, §3

wild type C57BL/6J mice = assay: Oral once-daily administration to wild type C57BL/6J mice; type: in vivo, mouse; conditions: wild type C57BL/6J mice
Experimental: Supplementary Figure S6. MD001 has no influence on food intake of mice. (A) Wild type C57/BL6 mice were orally administered with vehicle, rosiglitazone (20 mg/kg), or MD001 (20 mg/kg) once a day for 60 days. The change in their body weight was evaluated and presented as gain of body weight per group (n = 5 - 6 in each group). (B) The 3-day food intake in wild type C57/BL6 mice or db/db mice during the administration of the indicated drug was measured three times (n = 5 - 6 in each group). The data represent the mean ± SD.
C57/BL6 mice. (A-H) Wild type C57/BL6 mice were administered with vehicle, rosiglitazone (20 mg/kg), or MD001 (20 mg/kg) (n = 5 in each group) for 60 days, and their blood metabolites were measured. (B) Blood glucose level was examined during the administration of the […]

db/db mice [1] = conditions: mouse, in vivo; for H&E staining of skeletal muscle: 20 mg/kg
Experimental: (§4) (A) Changes in blood glucose levels was monitored in db/db mice administered once a day with vehicle, WY14643 (WY, 20 mg/kg), rosiglitazone (rosi, 20 mg/kg), or MD001 (n = 5–6 per group) as indicated. […] (D–M) The change in various blood metabolites was examined in db/db mice administered once a day with vehicle, WY14643 (WY), rosiglitazone (rosi), or MD001 (n = 5–6 per group). *, **, and ^#, vs. vehicle; ^†, vs. vehicle, MD001(5 mg/kg), and MD001(20 mg/kg). The data represent the mean ± S.D. *P < 0.05, **P < 0.01, ^#P < 0.001, and ^†P < 0.01.
(§5) Six-week-old C57BLKS/J-Lepr^db/Lepr^db or wild type C57BL/6J male mice were purchased from Orient Bio, Inc. (Seongnam, Korea) and acclimatised for one week. Mice were randomly grouped and orally administered with vehicle, WY14643 (20 mg/kg), rosiglitazone (20 mg/kg), or MD001 (5 mg/kg or 20 mg/kg) once a day for two months. […] Blood glucose levels were measured at the indicated time point using an OneTouch Ultra Blood Glucose Monitoring System (LifeScan, Inc., Milpitas, CA, USA).
(§6) Livers and blood samples were collected from mice in each group.
(§7) Tissues specimens including liver, perigonadal adipose tissue, skeletal muscle, spleen, kidney, and heart, were collected from mice in each group, fixed in 10% formalin, and embedded into paraffin. Tissue sections (5 μm) were stained with haematoxylin and eosin (H&E).

db/db mice [2] = assay: Oral once-daily administration to diabetic db/db mice; conditions: db/db mice; for number of large fat cells (>150 μm in diameter) / number of small fat cells (<100 μm in diameter): adipose tissue H&E; for blood glucose levels: MD001 5 or 20 mg/kg, WY14643 20 mg/kg, rosiglitazone 20 mg/kg; for diameter of the glomerular capsule: 20 mg/kg once a day for 60 days
Experimental: as §4, §5, §6, §7

transcriptional activity of PPARγ (human HA-PPARγ) | melting point | transcriptional activity of PPARα (human HA-PPARα) | food ingestion (db/db mice [1]) | H&E staining of skeletal muscle (db/db mice [1]) | H&E staining of adipose tissue, skeletal muscle, and liver (wild type C57BL/6J mice; 20 mg/kg once a day for 60 days) | Structure (SMILES) | body weight gain (wild type C57BL/6J mice; once a day for 60 days) | number of large fat cells (>150 μm in diameter) (db/db mice [2]) | number of small fat cells (<100 μm in diameter) (db/db mice [2]) | blood FFA (db/db mice [2]; oral once a day) | blood TG (db/db mice [2]; oral once a day) | blood glucose levels (db/db mice [2]; oral once a day) | diameter of the glomerular capsule (db/db mice [2]) | blood alanine aminotransferase (ALT) levels (db/db mice [2]; oral once a day) | blood aspartate aminotransferase (AST) levels (db/db mice [2]; oral once a day) | hepatic TG (db/db mice [2]; 20 mg/kg) | hepatic steatosis (H&E staining of liver) (db/db mice [2]; 20 mg/kg)
failed to enhance | 274 to 278 °C | failed to enhance | – | – | – | Cc1c(O)cc2oc(=O)c(C(=O)/C=C/c3ccccc3)c(-c3ccccc3)c2c1O [MD002] | – | – | – | – | – | – | – | – | – | – | –
– | – | – | without changes in food ingestion | no differences | – | Cc1cccc(Nc2cc(Cl)nc(SCC(=O)O)n2)c1C [WY14643, reference compound] | no induction of body weight gain | significantly reduced | significantly increased | significantly decreased | significantly decreased | significantly decreased | significantly reduced | – | – | – | –
– | – | – | – | no differences | no differences | CN(CCOc1ccc(CC2SC(=O)NC2=O)cc1)c1ccccn1 (stereo not drawn) [rosiglitazone, reference compound] | – | significantly reduced | significantly increased | significantly decreased | significantly decreased | significantly decreased | significantly reduced | significantly increased | significantly increased | failed to reduce | exacerbated hepatic steatosis
